Source: patent US4001315A, “Prostaglandin derivatives” (American Home Products Corporation, priority 1975, dated 1977)

Assays:
[1] = Hypotension in the anesthetized dog by the intravenous route; assay type: in vivo
Method: In the use of the compounds of the invention to produce hypotensive effects in warm-blooded animals, administration by the injectable route is preferred, preferably the intravenous route.
Thus in the anesthetized dog by the intravenous route the dose to produce hypotension is from about 1 mg/kg. to about 200 mg/kg. and preferably from about 10 mg/kg. to about 100 mg/kg. Using this procedure the following results were obtained.

[2] = system: bronchoconstricting effects of a standard dose of acetylcholine; test: Bronchodilation by aerosol inhalation in the guinea pig (method of Rosenthale et al.); assay type: in vivo; design: dose or concentration left out as unconfirmed
Source text: In using the compounds of the invention to produce bronchodilating effects in warm-blooded animals, they may be administered in a variety of dosage forms: oral, injectable, and aerosol inhalation. Aerosol inhalation is a preferred method because of its rapid onset of action, great potency, and specificity of action. The particular dosage to obtain the bronchodilating effect will vary with the particular compound employed, the particular animal involved, and the degree of bronchodilation desired. […] The bronchodilation produced upon aerosol inhalation can be observed by the method of Rosenthale et al., J. Pharmacol. Exp. Ther., 178, 541 (1971). Using this procedure the following result was obtained.

Row | Compound | Δb.p. ([1]; Dose 10 mg/kg.) [mm. Hg] | Percent Inhibition of the bronchoconstricting effects of a standard dose of acetylcholine [2] [%] | Δb.p. ([1]; Dose 100 mg/kg.) [mm. Hg]
1 | C#CC1(O)CC[C@H](/C=C/[C@@H](O)CCCCC)[C@H]1C/C=C\CCCC(=O)O (stereo partly drawn) [7-[(5RS)-5-Ethynyl-5-Hydroxy-2β-((3S)-3-Hydroxy-Trans-1-Octenyl)-1α-Cyclopentyl]-Cis-5-Heptenoic Acid] | -40 | – | –
2 | C#CC(O)(/C=C/[C@H]1CCC(O)(C#C)[C@@H]1C/C=C\CCCC(=O)O)CCCCC (stereo partly drawn) [7-[(5RS)-5-Ethynyl-2β-((3RS)-3-Ethynyl-3-Hydroxy-Trans-1-Octenyl)-5-Hydroxy-1α-Cyclopentyl]-Cis-5-Heptenoic Acid] | – | 48 | -26
3 | CCCCC[C@H](O)/C=C/[C@H]1CC[C@@](C)(O)[C@@H]1C/C=C\CCCC(=O)O [7-(5β-Hydroxy-2β-[(3S)-3-Hydroxy-Trans-1-Octenyl]-5α-Methyl-1α-Cyclopentyl)-Cis-5-Heptenoic Acid] | – | – | -19
4 | CCCCC[C@H](O)/C=C/[C@H]1CC[C@](C)(O)[C@@H]1C/C=C\CCCC(=O)O [7-(5α-Hydroxy-2β-[(3S)-3-Hydroxy-Trans-1-Octenyl]-5β-Methyl-1α-Cyclopentyl)-Cis-5-Heptenoic Acid] | – | – | -23
